Test results: patent US4879273A (The Rockefeller University, priority 1987, dated 1989)
Where no end group is shown, it is not given here.

Tests used:
[1] = tested on: adenylate cyclase; conditions: relative to glucagon = 100; liver membranes
Method: Adenylate Cyclase Assay. The assay on liver membranes was performed according to Salomon et al. [Salomon, Y., Londos, C. & Rodbell, M. Anal. Biochem. 58, 541,548 (1974)]. The released cAMP was mixed with [8-^3 H]cAMP measured with a high affinity cAMP binding protein.
The purpose of the adenylate cyclase assays is to measure the ability of the compound under test to stimulate the activity of adenylate cyclase. The assays are used to measure relative potency, maximum activity and inhibition index.
The inhibition index, defined above, was determined from adenylate cyclase assays by two different protocols.
2. […] Increasing amounts of antagonist were then added and the concentration that reduced the response to 45% of maximum was determined.

[2] = tested on: glucagon receptor; conditions: prior-art antagonist; cited from earlier work
[3] = tested on: adenylate cyclase; conditions: prior-art antagonist; cited from earlier work
[4] = tested on: hepatocyte membrane; conditions: prior-art antagonist; cited from earlier work

CSCC[C@H](NC(=O)[C@H](CC(C)C)NC(=O)[C@H](Cc1c[nH]c2ccccc12)NC(=O)[C@H](CCC(N)=O)NC(=O)[C@@H](NC(=O)[C@H](Cc1ccccc1)NC(=O)[C@H](CC(=O)O)NC(=O)[C@H](CCC(N)=O)NC(=O)[C@H](C)NC(=O)[C@H](CCCNC(=N)N)NC(=O)[C@H](CCCNC(=N)N)NC(=O)[C@H](CO)NC(=O)[C@H](CC(=O)O)NC(=O)[C@H](CC(C)C)NC(=O)[C@H](Cc1ccc(O)cc1)NC(=O)[C@H](CCCCN)NC(=O)[C@H](CO)NC(=O)[C@H](Cc1ccc(O)cc1)NC(=O)[C@H](CCC(=O)O)NC(=O)[C@H](CO)NC(=O)[C@@H](NC(=O)[C@H](Cc1ccccc1)NC(=O)[C@@H](NC(=O)CNC(=O)[C@H](CCC(N)=O)NC(=O)[C@@H](N)CO)[C@@H](C)O)[C@@H](C)O)C(C)C)C(=O)N[C@@H](CC(N)=O)C(=O)N[C@H](C(=O)O)[C@@H](C)O [Compound 1, des-His^1-[Glu^9] glucagon]
ADENYL CYCLASE ASSAYS Rel. Potency [1]: < 0.0008

CSCC[C@H](NC(=O)[C@H](CC(C)C)NC(=O)[C@H](Cc1c[nH]c2ccccc12)NC(=O)[C@H](CCC(N)=O)NC(=O)[C@@H](NC(=O)[C@H](Cc1ccccc1)NC(=O)[C@H](CC(=O)O)NC(=O)[C@H](CCC(N)=O)NC(=O)[C@H](C)NC(=O)[C@H](CCCNC(=N)N)NC(=O)[C@H](CCCNC(=N)N)NC(=O)[C@H](CO)NC(=O)[C@H](CC(=O)O)NC(=O)[C@H](CC(C)C)NC(=O)[C@H](Cc1ccc(O)cc1)NC(=O)[C@H](CCCCN)NC(=O)[C@H](CO)NC(=O)[C@H](Cc1ccc(O)cc1)NC(=O)[C@H](CCC(=O)O)NC(=O)[C@H](CO)NC(=O)[C@@H](NC(=O)[C@H](Cc1ccccc1)NC(=O)[C@@H](NC(=O)CNC(=O)[C@H](CCC(N)=O)NC(=O)[C@@H](N)CO)[C@@H](C)O)[C@@H](C)O)C(C)C)C(=O)N[C@@H](CC(N)=O)C(=O)N[C@H](C(N)=O)[C@@H](C)O [Compound 2, des-His^1-[Glu^9] glucagon amide]
ADENYL CYCLASE ASSAYS Rel. Potency [1]: < 0.0001

Nα- trinitrophenyl [12-homoarginine] glucagon
binding to the glucagon receptor (in words) [2]: does bind to the glucagon receptor
activation of adenylate cyclase (in words) [3]: without significant activation
activation of another binding system leading to inositol triphosphate and calcium ions (in words) [4]: activates another binding system

SQGTFTSEYSKYLDSKKAQEFVQWLMNT [Compound 3, des-His^1-[Glu^9 -Lys^17,18 Glu^21] glucagon]
ADENYL CYCLASE ASSAYS Rel. Potency [1]: 0.0001
